The values that follow come from patent US10000516B2 (priority 2015, dated 2018).

pIC50: −log10 of the molar value. Read-outs that look alike come from different tables or passages of the source.

This assay deals with T1, Human Factor D (Homo sapiens, UniProt P00746).
T1 construct: purified from human serum; purchased Complement Technology, Inc; host or cells: human serum (natural protein, not recombinant)
The assay can be described thus: Human Factor D assay (Z-L-Lys-SBzl/DTNB, absorbance at 405 nm). The class given is biochemical. Particulars: Human Factor D 80 nM, purified from human serum, substrate Z-L-Lys-SBzl. The protocol:
Example 44. Human Factor D Assay
Human Factor D (purified from human serum, Complement Technology, Inc.) at 80 nM final concentration was incubated with test compound at various concentrations for 5 minutes at room temperature in 50 mM Tris, 1M NaCl, pH 7.5. A synthetic substrate Z-L-Lys-SBzl and DTNB (Ellman's reagent) are added to final concentrations of 100 µM each. Absorbance at 405 nm (A405) was recorded at 30 second intervals for 30 minutes using a microplate spectrophotometer. IC50 values are calculated by nonlinear regression of complement Factor D reaction rates as a function of test compound concentration.

Setting [1] is: Table 3, read-out: IC50 (Stars).

T1 sequence (P00746 26-253): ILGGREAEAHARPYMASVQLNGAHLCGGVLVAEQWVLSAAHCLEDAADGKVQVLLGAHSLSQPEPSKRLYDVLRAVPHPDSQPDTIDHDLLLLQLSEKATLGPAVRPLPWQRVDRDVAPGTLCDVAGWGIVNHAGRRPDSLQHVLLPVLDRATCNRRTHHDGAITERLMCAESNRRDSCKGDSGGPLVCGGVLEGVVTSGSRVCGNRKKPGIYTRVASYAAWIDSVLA

Consider `CCOP(=O)(OCC)c1ccc2c(c1)c(C(N)=O)cn2CC(=O)N1[C@@H]2CC[C@@H](C2)[C@H]1C(=O)Nc1cccc(C)n1` [Compound 102, diethyl (3-carbamoyl-1-(2-((1R,3S,4S)-3-((6-methylpyridin-2-yl)carbamoyl)-2-azabicyclo[2.2.1]heptan-2-yl)-2-oxoethyl)-1H-indol-5-yl)phosphonate], for which the pIC50 under setting [1] was under 5.00.

For `CCOP(=O)(OCC)c1nc2c(s1)c(C(N)=O)nn2CC(=O)N1C[C@H](F)C[C@H]1C(=S)NC1CCC(c2cc3sccc3s2)C1` (some centres unmarked) [Compound 148], the pIC50 under setting [1] was under 5.00.

Consider `CCOP(=O)(OCC)c1ccc2c(c1)c(C(C)=O)cn2CC(=O)N1C[C@H](F)C[C@H]1C(=O)NCCCCc1ccccc1` [Compound 86, diethyl (3-acetyl-1-(2-((2S,4R)-4-fluoro-2-((4-phenylbutyl)carbamoyl)pyrrolidin-1-yl)-2-oxoethyl)-1H-indol-5-yl)phosphonate], for which the pIC50 under setting [1] was under 5.00.

Regarding `CCOP(=O)(OCC)c1ccc2c(c1)c(C(C)=O)cn2CC(=O)N1C[C@H](F)C[C@H]1CCNS(=O)(=O)c1ccccc1` [Compound 95, diethyl (3-acetyl-1-(2-((2R,4R)-4-fluoro-2-(2-(phenylsulfonamido)ethyl)pyrrolidin-1-yl)-2-oxoethyl)-1H-indol-5-yl)phosphonate], the pIC50 under setting [1] is under 5.00.

Consider `NC(=O)c1cn(CC(=O)N2C[C@H](F)C[C@H]2C(=O)NCc2cccc(Cl)c2F)c2cc(P(=O)(O)O)ccc12` [Compound 16, 3-carbamoyl-1-(2-((2S,4R)-2-(3-chloro-2-fluorobenzylcarbamoyl)-4-fluoropyrrolidin-1-yl)-2-oxoethyl)-1H-indol-6-ylphosphonic acid], for which, under “Table 1, read-out: IC50”, the negative logarithm of the IC50 (pIC50) is over 6.00.
